Test system: NOMO1
Test: cell viability relative to DMSO control; higher = less cytotoxic
Details: 48 h
Outline: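 In 1536-well plates, 5 μl of leukemia cells were seeded per well: 500 cells/well for NOMO1 or SEM and 1000 cells/well for P12-Ichikawa. Each line had first been adapted for at least four passages in each medium. Library compounds in DMSO were pin-dosed at 11 threefold concentrations between 47 μM and 0.79 nM, and CellTiter-Glo One luminescence was read after 48 h at 37°C. Viability is a per-plate percentage relative to DMSO wells, with cell-free wells as background.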

[1] = HPLM + 10% dialyzed FBS, 0.000781 µM
[2] = HPLM + 10% dialyzed FBS, 0.00234 µM
[3] = HPLM + 10% dialyzed FBS, 0.00702 µM
[4] = HPLM + 10% dialyzed FBS, 0.0211 µM
[5] = HPLM + 10% dialyzed FBS, 0.0632 µM
[6] = HPLM + 10% dialyzed FBS, 0.19 µM
[7] = HPLM + 10% dialyzed FBS, 0.569 µM
[8] = HPLM + 10% dialyzed FBS, 1.71 µM
[9] = HPLM + 10% dialyzed FBS, 5.12 µM
[10] = HPLM + 10% dialyzed FBS, 15.4 µM
[11] = HPLM + 10% dialyzed FBS, 46.1 µM
[12] = RPMI 5 mM glucose + 10% FBS, 0.000781 µM
[13] = RPMI 5 mM glucose + 10% FBS, 0.00234 µM
[14] = RPMI 5 mM glucose + 10% FBS, 0.00702 µM
[15] = RPMI 5 mM glucose + 10% FBS, 0.0211 µM
[16] = RPMI 5 mM glucose + 10% FBS, 0.0632 µM
[17] = RPMI 5 mM glucose + 10% FBS, 0.19 µM
[18] = RPMI 5 mM glucose + 10% FBS, 0.569 µM
[19] = RPMI 5 mM glucose + 10% FBS, 1.71 µM
[20] = RPMI 5 mM glucose + 10% FBS, 5.12 µM
[21] = RPMI 5 mM glucose + 10% FBS, 15.4 µM
[22] = RPMI 5 mM glucose + 10% FBS, 46.1 µM
[23] = RPMI 5 mM glucose + 10% dialyzed FBS, 0.000781 µM
[24] = RPMI 5 mM glucose + 10% dialyzed FBS, 0.00234 µM
[25] = RPMI 5 mM glucose + 10% dialyzed FBS, 0.00702 µM
[26] = RPMI 5 mM glucose + 10% dialyzed FBS, 0.0211 µM
[27] = RPMI 5 mM glucose + 10% dialyzed FBS, 0.0632 µM
[28] = RPMI 5 mM glucose + 10% dialyzed FBS, 0.19 µM
[29] = RPMI 5 mM glucose + 10% dialyzed FBS, 0.569 µM
[30] = RPMI 5 mM glucose + 10% dialyzed FBS, 1.71 µM
[31] = RPMI 5 mM glucose + 10% dialyzed FBS, 5.12 µM
[32] = RPMI 5 mM glucose + 10% dialyzed FBS, 15.4 µM
[33] = RPMI 5 mM glucose + 10% dialyzed FBS, 46.1 µM

| SMILES | cell viability [1] [%] | cell viability [2] [%] | cell viability [3] [%] | cell viability [4] [%] | cell viability [5] [%] | cell viability [6] [%] | cell viability [7] [%] | cell viability [8] [%] | cell viability [9] [%] | cell viability [10] [%] | cell viability [11] [%] | cell viability [12] [%] | cell viability [13] [%] | cell viability [14] [%] | cell viability [15] [%] | cell viability [16] [%] | cell viability [17] [%] | cell viability [18] [%] | cell viability [19] [%] | cell viability [20] [%] | cell viability [21] [%] | cell viability [22] [%] | cell viability [23] [%] | cell viability [24] [%] | cell viability [25] [%] | cell viability [26] [%] | cell viability [27] [%] | cell viability [28] [%] | cell viability [29] [%] | cell viability [30] [%] | cell viability [31] [%] | cell viability [32] [%] | cell viability [33] [%] |
| --- | --- | --- | --- | --- | --- | --- | --- | --- | --- | --- | --- | --- | --- | --- | --- | --- | --- | --- | --- | --- | --- | --- | --- | --- | --- | --- | --- | --- | --- | --- | --- | --- | --- |
| CC1=C(C)C2=C(S1)[N]3C(=NN=C3[C@H](CC(=O)OC(C)(C)C)/N=C2/C4=CC=C(Cl)C=C4)C | 104 | 97.6 | 92 | 102 | 96.1 | 70.7 | 28.9 | 52.4 | 15.7 | 10.5 | 10.1 | 88.2 | 99.2 | 96.4 | 88.4 | 86.2 | 81.8 | 27.3 | 50.5 | 12.1 | 10.6 | 11.1 | 101 | 97.5 | 92.5 | 87.7 | 96.8 | 81.9 | 29.5 | 55.3 | 11.7 | 10.6 | 10.5 |
| C[C@@H]1CN(CC(=O)N2CC(C)(C)c3ncc(Cc4ccc(F)cc4)cc32)[C@@H](CN2CCOC[C@H]2C)CN1 | 100 | 117 | 145 | 112 | 129 | 114 | 112 | 103 | 109 | 84 | 46.4 | 96.9 | 120 | 121 | 111 | 117 | 121 | 102 | 109 | 103 | 95.3 | 91.4 | 95.4 | 119 | 117 | 119 | 111 | 114 | 111 | 106 | 105 | 98.2 | 69.3 |
| COc1ccc([C@@H]2CNC(=O)C2)cc1OC1CCCC1 | 106 | 108 | 108 | 111 | 117 | 114 | 136 | 114 | 117 | 118 | 116 | 112 | 111 | 106 | 96.7 | 114 | 107 | 104 | 112 | 99.7 | 105 | 107 | 92.6 | 101 | 119 | 105 | 114 | 115 | 105 | 115 | 112 | 105 | 119 |
| Cn1cc(-c2ccc3ncc(Cc4ccc5ncccc5c4)n3n2)cn1 | 102 | 96.5 | 99.8 | 110 | 100 | 102 | 111 | 120 | 110 | 105 | 91.7 | 99.2 | 108 | 102 | 96.4 | 115 | 110 | 118 | 111 | 102 | 97.6 | 102 | 84.9 | 110 | 97.4 | 112 | 105 | 105 | 114 | 110 | 99 | 94.4 | 99.7 |
| CCOP(=O)(OCC)C(C)NC(=O)N(CCCl)N=O (configuration not stated) |  |  |  |  |  |  |  |  |  |  |  | 120 | 115 | 124 | 134 | 121 | 131 | 126 | 139 | 141 | 163 | 154 | 112 | 116 | 138 | 141 | 137 | 137 | 134 | 136 | 133 | 140 | 128 |
| Nc1ccc([S+](=O)([O-])Nc2ccccn2)cc1 | 122 | 106 | 122 | 117 | 106 | 115 | 140 | 133 | 116 | 124 | 87.6 | 110 | 106 | 111 | 113 | 121 | 125 | 112 | 118 | 126 | 108 | 79.8 | 120 | 121 | 114 | 109 | 112 | 121 | 122 | 130 | 109 | 115 | 58.1 |
| COC(=O)N[C@H](C(=O)N[C@@H](Cc1ccccc1)[C@@H](O)CN(Cc1ccc(-c2ccccn2)cc1)NC(=O)[C@@H](NC(=O)OC)C(C)(C)C)C(C)(C)C |  |  |  |  |  |  |  |  |  |  |  | 101 | 105 | 113 | 100 | 106 | 103 | 114 | 110 | 111 | 97.8 | 93.4 | 112 | 102 | 114 | 116 | 113 | 103 | 97.3 | 101 | 110 | 101 | 94.9 |
| O=C1c2cccc(O)c2C(=O)c2c(O)cc(CO)cc21 | 89.5 | 109 | 87.5 | 89.8 | 98.5 | 81.8 | 82.5 | 86.5 | 81.9 | 75.8 | 76.8 | 96.8 | 92.5 | 92.1 | 91.9 | 87.1 | 88.3 | 90.6 | 92.8 | 81.9 | 85.5 | 78.9 | 97.8 | 106 | 104 | 95.4 | 100 | 93.1 | 102 | 79.7 | 85.2 | 94.5 | 94.3 |

— the supplement of paper PMC11451515
